In PMC6508677, “Identification of druggable small molecule antagonists of the Plasmodium falciparum hexose transporter PfHT and assessment of ligand access to the glucose permeation pathway via FLAG-mediated protein engineering” (PLoS ONE, 2019):

Biological target: T1, hGLUT5 (Homo sapiens, UniProt P22732)
T1 construct: expressed in transfected cells; host or cells: HEK293 (HEK293-FLIP); native hGLUT1 not knocked down in this line
T1 sequence (P22732 1-501): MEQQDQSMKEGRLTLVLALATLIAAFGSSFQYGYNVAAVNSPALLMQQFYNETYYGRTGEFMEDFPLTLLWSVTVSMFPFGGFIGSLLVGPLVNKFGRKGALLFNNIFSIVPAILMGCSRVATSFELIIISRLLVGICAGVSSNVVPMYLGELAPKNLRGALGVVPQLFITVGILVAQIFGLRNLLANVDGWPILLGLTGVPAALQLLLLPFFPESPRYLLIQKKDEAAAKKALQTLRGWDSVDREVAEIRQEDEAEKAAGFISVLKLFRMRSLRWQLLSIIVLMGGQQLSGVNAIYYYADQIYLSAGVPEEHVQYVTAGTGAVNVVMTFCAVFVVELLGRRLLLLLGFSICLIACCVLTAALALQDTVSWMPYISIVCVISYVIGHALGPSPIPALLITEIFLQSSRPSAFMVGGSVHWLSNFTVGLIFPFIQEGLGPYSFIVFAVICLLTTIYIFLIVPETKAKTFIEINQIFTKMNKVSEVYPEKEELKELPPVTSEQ
Assay: [3H]-D-fructose uptake by HEK293 cells overexpressing GLUT5
Format: cell-based
Source text: Generation of HEK293 cells overexpressing PfHT and human GLUTs 1–4 were described elsewhere. Briefly, HEK293 cells were transfected with pcDNA3.1 FLII12Pglu-7006 (Addgene), containing the fluorescence resonance energy transfer (FRET) glucose sensor (HEK293-FLIP) and PfHT, human GLUT1 (hGLUT1), hGLUT2, hGLUT3, hGLUT4, hGLUT5 or hGLUT8 using Optifect (Life Technologies) according to manufacturer’s specifications. To increase retention of GLUT8 at the plasma membrane, the dileucine sorting signal E^7E^8XXXLL was modified to R^7R^8XXXLL as described in [17]. Stable transfectants were selected for G418 and hygromycin resistance to select for FRET sensor and hexose transporter, respectively. HEK293-FLIP cells were also used to generate cells stably transfected with FLAG-tagged PfHT (FTPfHT). FLAG tag ([…]) followed by a triple glycine linker and a tobacco etch virus (TEV) protease site (ENLYFQS) followed by a triple glycine linker was added to the N-terminus of PfHT via PCR [18] using Phusion Hot Start II High-Fidelity DNA Polymerase (Fisher Scientific). Single clones were selected by comparing their abilities to transport glucose as assayed via FRET and radiolabeled hexose uptake. In all cell lines, except for HEK293 cells overexpressing hGLUT1 and hGLUT5, native hGLUT1 was knocked down using shRNA as described elsewhere. Transcript levels of the individual GLUTs expressed in each cell line are as described in [13, 15] and in S1 Fig.
Glucose uptake by P. falciparum was performed essentially as described. P. falciparum strain 3D7 was cultured in 100 mm tissue culture dishes (Techno Plastic Products) in a 2% suspension of human erythrocytes and RPMI 1640 medium until reaching > 7.5% parasitemia. Cells were pelleted via centrifugation and resuspended in RPMI 1640 medium. To determine the uptake of radiolabeled glucose into the parasite, parasites were isolated from infected erythrocytes by permeablization with saponin (0.05 w/v), followed by centrifugation, aspiration of supernatant and washing of the pellet 3X with saline solution (135 mM NaCl, 2 mM KCl, 25 mM HEPES, 0.2 mM glucose and 1 mM MgCl2; pH 7.1) to remove cellular debris. WU-1 or DMSO vehicle were added to 100 μl parasites (resuspended in saline) 5 min prior to the addition of 100 μl [^14C]2-DOG (0.2- μCi/ml final concentration). 2-DG uptake was stopped after 2 min by layering the entire reaction over 300 μl of an oil mixture (5:4 mix of dibutyl phthalate / dinonyl phthalate) in Eppendorf tubes and centrifuged at 15,850 × g for 2 mins. The ratio of the estimated intracellular concentration of radiolabel relative to the extracellular concentration were calculated as described. Uptake of radiolabeled hexose into HEK293 cells was measured in glucose-free HBSS as described previously. Briefly, cells were plated at 400,000 cells/well overnight at 37°C in 24-well plates pre-treated with PEI. After 30-min incubation at 37°C in glucose-free HBSS in the presence of vehicle or increasing concentrations of compound, 2-DG uptake was measured in glucose-free HBSS for 4 min at 37°C. Cultures were washed in ice-cold 1X PBS and lysed in 0.1% Triton X-100 in 1X PBS. Radiolabeled hexose uptake was determined by liquid scintillation counting (Ultima Gold, Thermo Fisher) and normalized to total protein per well. Uptake data are plotted as percent uptake relative to vehicle-treated cells. Kinetic analyses were performed using the indicated concentrations of substrate and WU-1, with quenching of uptake after 1 min incubation. Incubation times had been previously determined as being in the linear range of time-dependent radiolabeled hexose uptake (2 min for 2-DG uptake into freed parasites; 2 and 4 min for D-Frc and 2-DG uptake HEK cell lines, respectively). Data were fit by least squares nonlinear regression analysis using GraphPad Prism 6.0 software.

## Cc1ccc(S(=O)(=O)CCNC(=O)c2c(-c3c(Cl)cccc3Cl)noc2C)cc1 [WU-1, 3-(2,6-dichlorophenyl)-5-methyl-N-[2-(4-methylbenzenesulfonyl)ethyl]-1,2-oxazole-4-carboxamide]
GLUT5, D-frc Uptake
  IC50 (µM): ambiguous
GLUT5 cell line
  IC50, D-fructose (Frc) uptake: n.i.
HEK293, 2 min, GLUT5, concentration 0.001 µM, read-out: D-frc Uptake AVE
  remaining activity at 0.001 µM: 100%
HEK293, 2 min, GLUT5, concentration 0.3125 µM, read-out: D-frc Uptake AVE
  remaining activity at 0.3125 µM: 78.1%
HEK293, 2 min, GLUT5, concentration 0.6250 µM, read-out: D-frc Uptake AVE
  remaining activity at 0.625 µM: 82.9%
HEK293, 2 min, GLUT5, concentration 1.2500 µM, read-out: D-frc Uptake AVE
  remaining activity at 1.25 µM: 96.7%
HEK293, 2 min, GLUT5, concentration 2.5000 µM, read-out: D-frc Uptake AVE
  remaining activity at 2.5 µM: 102%
HEK293, 2 min, GLUT5, concentration 5 µM, read-out: D-frc Uptake AVE
  remaining activity at 5 µM: 89.8%
HEK293, 2 min, GLUT5, concentration 10 µM, read-out: D-frc Uptake AVE
  remaining activity at 10 µM: 87.6%
HEK293, 2 min, GLUT5, concentration 20 µM, read-out: D-frc Uptake AVE
  remaining activity at 20 µM: 103%
HEK293, 2 min, GLUT5, concentration 40 µM, read-out: D-frc Uptake AVE
  remaining activity at 40 µM: 108%
HEK293, 2 min, GLUT5, concentration 80 µM, read-out: D-frc Uptake AVE
  remaining activity at 80 µM: 110%
HEK293, 2 min, GLUT5, concentration 160 µM, read-out: D-frc Uptake AVE
  remaining activity at 160 µM: 111%
HEK293, 2 min, GLUT5, concentration 225 µM, read-out: D-frc Uptake AVE
  remaining activity at 225 µM: 125%
Calculated from IC50s
  Selectivity Index (PfHT over GLUT5), Frc: n.i.
